1 molecule from patent US20220313626A1, “SMALL MOLECULE INHIBITORS FOR TREATING CANCER IN A SUBJECT HAVING TUMORS WITH HIGH INTERSTITIAL PRESSURE” (GUANGZHOU MAXINOVEL PHARMACEUTICALS CO., LTD., priority 2019, published 2022) can be followed below.

Data set [1] deals with PD-L1 suppressed human T-cells. Put plainly: Activation of T-Cell Suppressed by PD-L1 (IFN-g readout). In kind it is cell-based. As to conditions: human T cells co-cultured with Hep3B cells transfected with human PD-L1; dose dependent; Keytruda positive control. The text has this: To measure the cellular activity of the compound, a protocol of Activation of T-Cell Suppressed by PD-L1 was used. In this protocol, human Hep3B cells were stably transfected with human PD-L1. The human T cells containing PD-1 were inactivated by co-culturing with these PD-L1 transfected cells. Then anti-PD-1 antibody Keytruda® was selected as the reference to profile the compound for its activation of PD-L1 suppressed human T-cells.

The next data set deals with MC-38-hPD-L1 tumor cells. The experiment in a line: Anti-tumor efficacy in MC-38-hPD-L1 models. In kind it is in vivo. As to conditions: for TGI / Tumor Volume: MC-38-hPD-L1, C57BL/6-hPD-1 mice, BID, 19 days. The protocol:
Materials required for the experiment: Antibody: PD-L1 antibody Durvalumab, Product specifications: 120 mg/2.4 mL(50 mg/mL), Lot No.: 041E17C, Manufacture: AstraZeneca, purchased from Hongkong Mingchuang Medical Limited, storage at 2-8° C. Experimental animal: 120 C57BL/6-hPD-1 mice, female, 6˜8 weeks old, 18˜21 g, purchased from Jiangsu Gem Pharmatech Co. Ltd. Formulation material: castor oil (Cremophor RH40), CAS No.: 61788-85-0, Lot No.: 29761847G0, purchased from Shanghai Xietai Chemical Co. Ltd.; β-cyclodextrin (SBE-β-CD), CAS No.: 128446-35-5, Lot No.: R1804474, purchased from Shanghai Shaoyuan Chemical Co. Ltd.; DMEM culture medium, CAS No.: 11995-065, Lot No.: 2025378, purchased from Gibco Co. Ltd.; PBS, Art. No.: SH30256.01, Lot No.: AB10141338, purchased from HyClone Co. Ltd.; Fetal bovine serum: CAS No.: 10099-141, Lot No.: 1966174C, purchased from Gibco Co. Ltd.; hygromycinB: CAS No.: 10687010, Lot No.: HY069-L12 purchased from Invitrogen.
Cell culture: The MC-38 tumor cells (NCI) were maintained in vitro as a monolayer culture in DMEM medium supplemented with 10% heat inactivated fetal bovine serum, 100 μg/mL hygromycinB at 37° C. in an atmosphere of 5% CO2 in air. The tumor cells were routinely subcultured three times weekly by trypsin-EDTA treatment. The cells growing to a confluency around 70%-80% were harvested and counted for tumor inoculation.
Tumor cell inoculation and group administration: The 100 uL cell suspension containing 1×10^6 MC-38-hPD-L1 tumor cells (cells suspended in base DMEM medium) was inoculated into right dorsal subcutaneous area in mice. 6 days after inoculation, 60 tumor-bearing mice with transplanted tumors ranging from 31.49 mm^3 to 110.26 mm^3 were selected, stratified randomization was used to group and start the administration on the day of grouping.
Preparation of test substances: Preparation of formulation: 800 mL of sterile water was added into the volumetric flask with magnetic stirring to have a vortex. 100 g of castor oil (Cremophor RH40) was added with a spoon slowly into the vortex and the solution was kept stirring. 200 g of β-cyclodextrin (SBE-β-CD) was added while the solution was kept stirring until the solution was clear, and the total volume was set to 1000 mL, which contained 10% (w/v) Cremophor RH40+20% (w/v) an aqueous solution of SBE-β-CD.
Preparation of Compound Suspension: 150.92 mg compound was weighed and 12.5 mL 10% (w/v) Cremophor RH40+20% (w/v) SBE-β-CD aqueous solution were added. The suspension solution with a concentration of 12.0 mg/mL was obtained by vortex for 2 minutes and ultrasound for 30 minutes. 5.0 mL of the compound suspension solution with concentration of 12.0 mg/mL was pipetted and 5.0 mL aqueous formulation solution was added. The suspension solution with a concentration of 6.0 mg/mL was obtained by vortex for 1 minute and sonicated by ultrasound for 5 minutes. 2.0 mL of the compound suspension solution with concentration of 6.0 mg/mL was pipetted and […] was added. The suspension solution with a concentration of 3.0 mg/mL was obtained by vortex for 1 minute and sonicated by ultrasound for 5 minutes. Compound suspension solution was prepared once a day.
Preparation of hPD-L1 antibody: 0.12 mL PD-L1 antibody Durvalumab (50 mg/mL) original solution was pipetted and divided into […] in 5 mL sterile centrifugal tube, which were packed with each containing 6.0 mg. They were stored in refrigerator at 4° C. Before administration, a raw solution containing 0.12 mL and 50 mg/mL was taken, and 2.88 mL 0.9% sodium chloride solution was added to make the solution thoroughly mixed. 3 mL Duvalumab solution with the concentration 2 mg/mL was obtained.
Procedure: The mice in the vehicle group were weighed and recorded in the electronic balance according to their numbers. […]

As for `Cc1c(/C=C/c2cc(CN[C@@](C)(CO)C(=O)O)ccc2C(F)(F)F)cccc1-c1ccccc1` [Compound], the “activation of PD-L1 suppressed human T cell, indicated by increase of cytokine IFN-g” value in data set [1] is “effectively restored the activation”. In the data set on MC-38-hPD-L1 tumor cells (C57BL/6-hPD-1 mice, PO, BID up to 120 mg/kg), the “tolerability (adverse reactions)” value is reported as “well tolerated”. Moreover, the TGI in the data set with MC-38-hPD-L1 tumor cells (30 mg/kg, PO) came out at 24.95%; in the data set on MC-38-hPD-L1 tumor cells (60 mg/kg, PO), 29.06%; with MC-38-hPD-L1 tumor cells (120 mg/kg, PO), 51.21%. The “Tumor Volume” value is reported as 459.82 ± 58.24 mm^3 in the data set with MC-38-hPD-L1 tumor cells (30 mg/kg, PO); 439.04 ± 51.23 mm^3 in the data set on MC-38-hPD-L1 tumor cells (60 mg/kg, PO); 325.23 ± 38.59 mm^3 in the data set on MC-38-hPD-L1 tumor cells (120 mg/kg, PO). In the data set on MC-38-hPD-L1 tumor cells (MC-38-hPD-L1 model, C57BL/6-hPD-1 mice), the “growth of subcutaneous MC-38-hPD-L1 tumors in mice” value is on record as “significantly inhibit the growth”.
